According to paper PMC9579011, “Coprinopsis cinerea dioxygenase is an oxygenase forming 10(S)-hydroperoxide of linoleic acid, essential for mushroom alcohol, 1-octen-3-ol, synthesis” (The Journal of Biological Chemistry, 2022):

What was measured:
CcDOX2 = target: T1, CcDOX2 (Coprinopsis cinerea, UniProt A8NN01); experiment: LC-MS/MS of products after triphenylphosphine reduction; format: biochemical; settings: immunopurified EGFP fusion; 8-hydroperoxide product (tentative)
T1 construct: gene CC1G_09914; full length, 1118 aa, C-terminal EGFP fusion, expressed in BmN4 (Bombyx mori) cells, immunopurified with anti-GFP antibody
T1 sequence (A8NN01 1-1118): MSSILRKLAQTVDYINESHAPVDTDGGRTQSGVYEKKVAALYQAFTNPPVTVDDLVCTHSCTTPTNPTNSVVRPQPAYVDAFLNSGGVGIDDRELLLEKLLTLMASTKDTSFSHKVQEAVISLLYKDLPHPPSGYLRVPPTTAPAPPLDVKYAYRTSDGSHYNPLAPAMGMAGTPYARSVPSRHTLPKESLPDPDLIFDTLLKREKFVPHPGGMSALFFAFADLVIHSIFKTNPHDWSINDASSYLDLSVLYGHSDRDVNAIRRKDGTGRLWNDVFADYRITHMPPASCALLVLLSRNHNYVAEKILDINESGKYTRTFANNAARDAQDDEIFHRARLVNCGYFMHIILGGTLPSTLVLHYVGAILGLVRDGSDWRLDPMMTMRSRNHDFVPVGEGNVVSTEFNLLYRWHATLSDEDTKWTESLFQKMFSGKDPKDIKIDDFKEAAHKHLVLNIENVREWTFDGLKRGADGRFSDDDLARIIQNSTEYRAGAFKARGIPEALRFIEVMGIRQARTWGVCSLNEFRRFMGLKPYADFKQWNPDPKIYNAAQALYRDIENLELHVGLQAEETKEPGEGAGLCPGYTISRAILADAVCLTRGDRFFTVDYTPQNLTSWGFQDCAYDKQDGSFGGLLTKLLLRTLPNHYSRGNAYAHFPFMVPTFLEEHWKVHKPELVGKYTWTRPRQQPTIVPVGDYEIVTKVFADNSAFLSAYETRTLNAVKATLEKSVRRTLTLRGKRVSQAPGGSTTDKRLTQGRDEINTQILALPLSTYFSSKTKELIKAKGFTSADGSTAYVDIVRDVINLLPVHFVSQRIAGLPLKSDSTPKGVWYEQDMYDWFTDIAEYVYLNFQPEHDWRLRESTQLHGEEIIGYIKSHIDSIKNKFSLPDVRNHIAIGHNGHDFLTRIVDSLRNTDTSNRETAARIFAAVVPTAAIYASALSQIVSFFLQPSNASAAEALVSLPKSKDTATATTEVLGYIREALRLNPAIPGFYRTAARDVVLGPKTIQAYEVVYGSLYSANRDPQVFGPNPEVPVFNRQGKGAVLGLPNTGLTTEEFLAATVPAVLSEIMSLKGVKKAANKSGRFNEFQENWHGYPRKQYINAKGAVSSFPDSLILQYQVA

CcDOX1 = target: T2, CcDOX1 (Coprinopsis cinerea, UniProt A8N8W9); experiment: LC-MS/MS product peak area, Hill fit of [S]-v plot; format: biochemical; settings: Hill coefficient n = 1.9 ± 0.27; 10-500 μM substrate, 30 min on ice; bead-bound immunopurified EGFP fusion; lysis buffer pH 7.4
T2 construct: gene CC1G_00844; full length, 1066 aa, C-terminal EGFP fusion, expressed in BmN4 (Bombyx mori) cells, immunopurified on anti-GFP beads
T2 sequence (A8N8W9 1-1066): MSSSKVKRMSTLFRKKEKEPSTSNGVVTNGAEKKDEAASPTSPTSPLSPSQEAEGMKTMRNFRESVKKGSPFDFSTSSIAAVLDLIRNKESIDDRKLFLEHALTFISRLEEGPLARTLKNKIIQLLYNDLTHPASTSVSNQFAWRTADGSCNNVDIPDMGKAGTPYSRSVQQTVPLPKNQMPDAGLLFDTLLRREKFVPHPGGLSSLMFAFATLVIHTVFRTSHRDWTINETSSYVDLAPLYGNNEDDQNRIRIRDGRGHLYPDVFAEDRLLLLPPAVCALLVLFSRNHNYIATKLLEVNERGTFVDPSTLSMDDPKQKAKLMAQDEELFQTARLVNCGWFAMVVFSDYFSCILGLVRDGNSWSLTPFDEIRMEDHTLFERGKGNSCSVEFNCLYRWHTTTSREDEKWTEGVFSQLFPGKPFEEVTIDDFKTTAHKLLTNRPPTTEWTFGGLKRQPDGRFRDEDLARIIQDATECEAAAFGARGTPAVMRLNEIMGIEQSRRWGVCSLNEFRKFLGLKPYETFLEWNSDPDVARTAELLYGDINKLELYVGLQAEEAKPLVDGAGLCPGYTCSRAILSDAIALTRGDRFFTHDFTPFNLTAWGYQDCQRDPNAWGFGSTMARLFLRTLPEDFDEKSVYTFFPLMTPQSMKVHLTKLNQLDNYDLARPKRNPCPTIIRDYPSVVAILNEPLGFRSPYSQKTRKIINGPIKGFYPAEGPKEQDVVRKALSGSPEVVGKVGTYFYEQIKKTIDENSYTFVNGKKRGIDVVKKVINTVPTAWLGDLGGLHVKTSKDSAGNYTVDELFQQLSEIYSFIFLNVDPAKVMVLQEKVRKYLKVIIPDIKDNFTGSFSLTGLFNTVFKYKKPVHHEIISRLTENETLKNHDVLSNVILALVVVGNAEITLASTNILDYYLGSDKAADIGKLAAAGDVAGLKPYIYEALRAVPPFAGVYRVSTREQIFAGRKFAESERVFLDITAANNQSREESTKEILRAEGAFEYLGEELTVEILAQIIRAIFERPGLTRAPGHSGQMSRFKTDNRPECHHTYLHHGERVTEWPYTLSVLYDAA

- KA (CcDOX1): 78 ± 9.74 µM
Structure (SMILES): CCCCC/C=C\C/C=C\CCCCCCCC(=O)O [linoleic acid]
- LC-MS/MS of products after triphenylphosphine reduction (CcDOX2): Linoleic acid was added to the purified recombinant CcDOX1 and CcDOX2
